Results published in patent US20220289794A1, “SYNTHETIC ANTIMICROBIAL PEPTIDES” (priority 2019, published 2022).
Values after ≈ are worked out from the molar mass of the structure shown. Like-named read-outs stand apart in the source and are kept apart here. Non-standard residues stand in square brackets, D forms with d. Residues, ends and D or L forms follow the SMILES beside them. dDip = N[C@@H](C(=O)O)C(c1ccccc1)c1ccccc1; 2Nal = N[C@@H](Cc1ccc2ccccc2c1)C(=O)O; d2Nal = N[C@H](Cc1ccc2ccccc2c1)C(=O)O

Key:
[1] = tested on: Methicillin-resistant Staphylococcus aureus MRSA (ATCC BAA-1556); conditions: ATCC BAA-1556
S. aureus ATCC 29213 = conditions: ATCC 29213
[2] = tested on: Pseudomonas aeruginosa (ATCC 27883)
[3] = tested on: Escherichia coli (ATCC 25922); conditions: ATCC 25922
in vitro = conditions: human, fresh human red blood cells (washed), pH 7.4

| Structure (SMILES) | MIC MRSA ATCC BAA-1556 [1] [µg/mL] | MIC S. aureus ATCC 29213 (S. aureus ATCC 29213) [µg/mL] | MIC P. aeruginosa ATCC 27883 ([2]; ATCC 27883) [µg/mL] | MIC E. coli ATCC 25922 [3] [µg/mL] | HC50 at 0.5 h (in vitro) [µg/mL] | MIC P. aeruginosa ATCC 27883 ([2]; P. aeruginosa ATCC 27883) [µg/mL] |
| --- | --- | --- | --- | --- | --- | --- |
| N=C(N)NCCC[C@H](NC(=O)[C@H](CCCNC(=N)N)NC(=O)[C@H](CCCNC(=N)N)NC(=O)[C@@H](N)CCCNC(=N)N)C(=O)N[C@@H](Cc1c[nH]c2ccccc12)C(=O)N[C@H](Cc1ccc2ccccc2c1)C(=O)N[C@H](Cc1ccc2ccccc2c1)C(=O)O [IFX-112-1] (H-RRRRW[d2Nal][d2Nal]-OH) | 3.1 (≈ 2.53 µM) | 6.2 (≈ 5.07 µM) | 25 (≈ 20.4 µM) | 12.5 (≈ 10.2 µM) | 370 | – |
| NCCCC[C@@H]1NC(=O)[C@H](CCCCN)NC(=O)[C@H](CCCCN)NC(=O)[C@@H](Cc2ccc3ccccc3c2)NC(=O)[C@@H](Cc2ccc3ccccc3c2)NC(=O)[C@@H](Cc2c[nH]c3ccccc23)NC(=O)[C@H](CCCCN)NC(=O)[C@H](CCCCN)NC1=O [IFX-132, c[Lys-Lys-Lys-Lys-Lys-trp-naI-naI]] (cyclo(KKKKK[dW][d2Nal][d2Nal])) | 12.5 (≈ 10.2 µM) | 12.5 (≈ 10.2 µM) | 128 (≈ 105 µM) | 128 (≈ 105 µM) | 930 | – |
| N=C(N)NCCC[C@@H]1NC(=O)[C@H](CCCNC(=N)N)NC(=O)[C@@H](CCCNC(=N)N)NC(=O)[C@H](CCCNC(=N)N)NC(=O)[C@H](Cc2ccc3ccccc3c2)NC(=O)[C@H](Cc2ccc3ccccc3c2)NC(=O)[C@H](Cc2c[nH]c3ccccc23)NC1=O [IFX-107, c[Arg-arg-Arg-Arg-Trp-NaI-NaI]] (cyclo([2Nal][2Nal]R[dR]RRW)) | 1.5 (≈ 1.24 µM) | 1.5 (≈ 1.24 µM) | 6.2 (≈ 5.14 µM) | 12.5 (≈ 10.4 µM) | 175 | – |
| N=C(N)NCCC[C@H]1NC(=O)[C@H](Cc2ccc3ccccc3c2)NC(=O)[C@H](Cc2ccc3ccccc3c2)NC(=O)[C@H](Cc2c[nH]c3ccccc23)NC(=O)[C@@H](CCCNC(=N)N)NC(=O)[C@@H](CCCNC(=N)N)NC(=O)[C@@H](CCCNC(=N)N)NC1=O [IFX-113, c[arg-arg-arg-arg-Trp-NaI-NaI]] (cyclo([dR][dR][dR][dR]W[2Nal][2Nal])) | 1.5 (≈ 1.24 µM) | 3.1 (≈ 2.57 µM) | – | 12.5 (≈ 10.4 µM) | 365 | 12.5 (≈ 10.4 µM) |
| N=C(N)NCCC[C@@H](N)C(=O)N[C@@H](CCCNC(=N)N)C(=O)N[C@H](CCCNC(=N)N)C(=O)N[C@@H](CCCNC(=N)N)C(=O)N[C@@H](C(=O)N[C@@H](C(=O)N[C@@H](C(=O)O)C(c1ccccc1)c1ccccc1)C(c1ccccc1)c1ccccc1)C(c1ccccc1)c1ccccc1 [IFX-068-1] (H-[dR]R[dR]R[dDip][dDip][dDip]-OH) | 6.2 (≈ 4.72 µM) | 3.1 (≈ 2.36 µM) | 25 (≈ 19 µM) | 12.5 (≈ 9.52 µM) | 355 | – |
| N=C(N)NCCC[C@H](NC(=O)[C@@H](CCCNC(=N)N)NC(=O)[C@@H](N)CCCNC(=N)N)C(=O)N[C@H](CCCNC(=N)N)C(=O)N[C@@H](Cc1c[nH]c2ccccc12)C(=O)N[C@H](Cc1ccc2ccccc2c1)C(=O)N[C@H](Cc1ccc2ccccc2c1)C(=O)O [IFX-111-1] (H-R[dR]R[dR]W[d2Nal][d2Nal]-OH) | 3.1 (≈ 2.53 µM) | 3.1 (≈ 2.53 µM) | 25 (≈ 20.4 µM) | 25 (≈ 20.4 µM) | 310 | – |
| NCCCC[C@H]1NC(=O)[C@@H](CCCCN)NC(=O)[C@@H](CCCCN)NC(=O)[C@@H](Cc2ccc3ccccc3c2)NC(=O)[C@@H](Cc2ccc3ccccc3c2)NC(=O)[C@@H](Cc2c[nH]c3ccccc23)NC(=O)[C@@H](CCCCN)NC(=O)[C@@H](CCCCN)NC1=O [IFX-133, c[lys-lys-lys-lys-lys-trp-naI-naI]] (cyclo([d2Nal][d2Nal][dK][dK][dK][dK][dK][dW])) | 6.2 (≈ 5.08 µM) | 6.2 (≈ 5.08 µM) | 128 (≈ 105 µM) | 128 (≈ 105 µM) | 580 | – |
| NCCCC[C@@H]1NC(=O)[C@@H](CCCCN)NC(=O)[C@H](CCCCN)NC(=O)[C@@H](Cc2ccc3ccccc3c2)NC(=O)[C@@H](Cc2ccc3ccccc3c2)NC(=O)[C@H](Cc2c[nH]c3ccccc23)NC(=O)[C@@H](CCCCN)NC1=O [IFX-129, c[Lys-lys-Lys-lys-Trp-naI-naI]] (cyclo(K[dK]K[dK]W[d2Nal][d2Nal])) | 3.1 (≈ 2.84 µM) | 3.1 (≈ 2.84 µM) | 64 (≈ 58.5 µM) | 64 (≈ 58.5 µM) | 420 | – |
